Reference: the supplement of paper PMC10949913

Experiments:
Conditions in all cases: 48 h
CU-ACC1 [1] = assay: area under concentration-response curve (viability) (AUC (a.u.)); higher = less active
Procedure, shortened: (§1)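 In 1,536-well plates, 500–1,000 cells/well of three adrenocortical carcinoma cell lines in 5 µL medium received 23 nL of each library compound across 11 concentrations. At 48 h, CellTiter-Glo was incubated for 15 minutes at room temperature and luminescence measured. Per-plate normalisation used vehicle and empty-well controls, and only inhibitory or non-responding curve classes were kept when fitting concentration-response curves for AC50 and area under the curve.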

CU-ACC2 [2] = assay: as above
Procedure, shortened: as §1

CU-ACC2 [3] = assay: AC50 viability; higher = less potent
Procedure, shortened: as §1

NCI-H295R [4] = assay: area under concentration-response curve (viability) (AUC (a.u.)); higher = less active
Procedure, shortened: as §1

CU-ACC1 [5] = assay: AC50 viability; higher = less potent
Procedure, shortened: as §1

NCI-H295R [6] = assay: AC50 viability; higher = less potent
Procedure, shortened: as §1

Structure (SMILES) | area under concentration-response curve (CU-ACC1 [1]) | area under concentration-response curve (CU-ACC2 [2]) | AC50 viability (CU-ACC2 [3]) [µM] | area under concentration-response curve (NCI-H295R [4]) | AC50 viability (CU-ACC1 [5]) [µM] | AC50 viability (NCI-H295R [6]) [µM]
COc1ccc2c(c1)[C@]1(C[C@H]1c1ccc3c(/C=C/c4ccc(CN5C[C@@H](C)O[C@@H](C)C5)cc4)n[nH]c3c1)C(=O)N2 | 384 | 344 | 1.86 |  |  | 
FC1=CC2=C3[N](CCN(CC3=C1)C(=O)N4CCCCC4)C=C2C/5=C(C(=O)NC5=O)\C6=CN=C7C=CC=C[N]67 |  | 549 | 18.6 |  |  | 
CN(C)c1ccc2nc3ccc(N(C)C)cc3[s+]c2c1.[Cl-] |  | 482 | 20.9 |  |  | 
COc1cc2nc(-c3ccc(N4CCN(C)CC4)cc3)nc(NCCN3CCOCC3)c2cc1OC |  | 397 | 3.72 |  |  | 
O=C(O)[C@H](Cc1c[nH]c2ccccc12)N1C(=O)c2ccccc2C1=O |  | 338 | 37.2 |  |  | 
CN1CCN(CC1)\C2=N\C3=C(NC4=C2C=CC=C4)C=CC(=C3)Cl |  | 398 | 33.2 |  |  | 
CN1CCN(c2cccc(Nc3nc4c(-c5ccc([S+](C)(=O)[O-])cc5)cccn4n3)c2)CC1 |  | 552 | 20.9 |  |  | 
O=C(Nc1cc(Cl)cc2c1[nH]c1cnccc12)c1cccnc1 |  | 402 | 0.182 |  |  | 
Clc1ccc(C(Cn2ccnc2)OCc2ccc(Sc3ccccc3)cc2)c(Cl)c1 (configuration not stated) |  | 528 | 23.5 |  |  | 
C[S+](=O)([O-])c1cccc(CNc2nc(Nc3ccc4c(c3)CCC(=O)N4)ncc2C(F)(F)F)c1 |  | 467 | 23.5 |  |  | 
CCNC1(C(N)=O)CCN(c2ncnc3c2nc(-c2ccccc2Cl)n3-c2ccc(Cl)cc2)CC1 |  | 330 | 0.295 |  |  | 
CC1(C)CC[C@@]2(CC[C@]3(C)[C@@H]([C@@H]2C1)C(=O)\C=C\4[C@@]3(C)CC[C@H]5C(C)(C)C(=O)\C(=C/[C@]45C)C#N)NC(=O)C(C)(F)F |  | 606 | 23.5 |  |  | 
N#CCNC(=O)c1ccc(-c2ccnc(Nc3ccc(N4CCOCC4)cc3)n2)cc1 |  | 514 | 14.8 |  |  | 
CC[C@H](CO)Nc1nc(NCc2ccccc2)c2ncn(C(C)C)c2n1 |  | 582 | 20.9 |  |  | 
CCOc1cc2ncc(C#N)c(Nc3ccc(F)c(Cl)c3)c2cc1NC(=O)/C=C/CN(C)C |  | 419 | 8.33 |  |  | 
COc1c(Cl)cc2c([nH]c3cnccc32)c1NC(=O)c1cccnc1C |  | 374 | 7.42 |  |  | 
C=CC(=O)Nc1cccc(C)c1Nc1ncc2cc(-c3c(Cl)c(OC)cc(OC)c3Cl)ccc2n1 |  | 475 | 6.61 |  |  | 
Cn1c(=O)n(-c2ccc(C(C)(C)C#N)cc2)c2c3cc(-c4cnc5ccccc5c4)ccc3ncc21 | 471 | 623 |  | 510 | 0.108 | 0.171
COc1cc(C(=O)NC(=N)Nc2ccc(C)c(NC(=O)c3ccc(-c4ccccc4)cc3)c2)cc(OC)c1OC | 403 | 489 |  | 399 | 10.5 | 13.2
CC1(C)OCCn2c1nc1c(N3CCOCC3)nc(-c3cnc(N)nc3)nc12 | 395 | 500 |  | 430 | 1.18 | 1.86
CN(C)c1ccc(Nc2nc(N)n(C(=O)c3c(F)cccc3F)n2)cc1 |  | 553 | 16.6 |  |  | 
O=C1Nc2ccc(Cl)cc2[C@@](C#CC2CC2)(C(F)(F)F)O1 | 490 | 589 |  | 468 | 20.9 | 20.9
COC1(c2sc3c(N4CCOCC4)nc(-c4cnc(N)nc4)nc3c2C)COC1 | 287 | 374 |  | 322 | 0.525 | 0.372
Fc1ccc(-c2csc3ncnc(NCc4ccc5c(c4)OCO5)c23)cc1 | 390 | 532 |  | 427 | 3.32 | 20.9
